Data as given in patent publication US11661426B2, “Imidazole-containing inhibitors of ALK2 kinase” (BioCryst Pharmaceuticals, Inc., priority 2017, dated 2023).

target: ALK2 (Homo sapiens (Human), UniProt Q04771); assay: ALK2 inhibition, LanthaScreen Eu Kinase Binding Assay (ThermoFisher Scientific / Life Technologies); conditions: read-out: Measured Ki (IC50) Value for Compounds: IC50
Description: Biochemical assays to measure the inhibitory effects of the compounds were performed by ThermoFisher Scientific (Life Technologies). ALK2 inhibition was tested using LanthaScreen™ Eu Kinase Binding Assay screening protocol.

Sequence of ALK2 (Q04771 21-509): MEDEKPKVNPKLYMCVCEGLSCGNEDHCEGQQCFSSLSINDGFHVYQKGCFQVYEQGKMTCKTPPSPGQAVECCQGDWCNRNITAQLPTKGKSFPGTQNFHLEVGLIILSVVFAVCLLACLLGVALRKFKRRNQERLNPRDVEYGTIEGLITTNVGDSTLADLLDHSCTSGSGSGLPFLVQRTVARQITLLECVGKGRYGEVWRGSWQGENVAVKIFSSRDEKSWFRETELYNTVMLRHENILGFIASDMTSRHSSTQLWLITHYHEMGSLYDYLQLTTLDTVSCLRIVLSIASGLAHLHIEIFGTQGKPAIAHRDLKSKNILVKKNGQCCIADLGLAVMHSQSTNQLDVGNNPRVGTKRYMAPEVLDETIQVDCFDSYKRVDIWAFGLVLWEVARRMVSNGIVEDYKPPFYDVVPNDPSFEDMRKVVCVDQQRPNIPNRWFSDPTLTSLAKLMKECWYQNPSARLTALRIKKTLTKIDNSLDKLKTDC

Row | SMILES | IC50 [nM]
1 | COc1cc(-n2cnc(Nc3nc(N4CCC[C@H]4CO)nc4cnn(C)c34)c2)cc(OC)c1OC [Compound 316a, (S)-(1-(1-methyl-7-((1-(3,4,5-trimethoxyphenyl)-1H-imidazol-4-yl)amino)-1H-pyrazolo[4,3-d]pyrimidin-5-yl)pyrrolidin-2-yl)methanol] | 100 to 1000
2 | CCOc1ccc(-n2cnc(Nc3nc(N4CCC[C@H]4CO)nn4cccc34)c2)cc1OCC [Compound 319b, (S)-(1-(4-((1-(3,4-diethoxyphenyl)-1H-imidazol-4-yl)amino)pyrrolo[2,1-f][1,2,4]triazin-2-yl)pyrrolidin-2-yl)methanol] | 100 to 1000
3 | COc1cc(-n2cnc(Nc3nc(N4C[C@@H]5C[C@@H]5[C@@H]4CO)c4cccn4n3)c2)cc(OC)c1OC [Compound 324b, ((1S,2R,5R)-3-(2-((1-(3,4,5-trimethoxyphenyl)-1H-imidazol-4-yl)amino)pyrrolo[2,1-f][1,2,4]triazin-4-yl)-3-azabicyclo[3.1.0]hexan-2-yl)methanol] | 100 to 1000
4 | COc1cc(-n2cnc(Nc3nc(N4CCC[C@H]4CO)c4c(cnn4C)n3)c2)cc(OC)c1OC [Compound 328c, (S)-(1-(1-methyl-5-((1-(3,4,5-trimethoxyphenyl)-1H-imidazol-4-yl)amino)-1H-pyrazolo[4,3-d]pyrimidin-7-yl)pyrrolidin-2-yl)methanol] | < 100
5 | COc1cc(-n2cnc(Nc3nc(N4CCC[C@H]4CO)nc4[nH]ncc34)c2)cc(OC)c1OC [Compound 329a, (S)-(1-(4-((1-(3,4,5-trimethoxyphenyl)-1H-imidazol-4-yl)amino)-1H-pyrazolo[3,4-d]pyrimidin-6-yl)pyrrolidin-2-yl)methanol] | < 100
6 | OC[C@@H]1CCCN1c1nc(Nc2cn(-c3cccc(OC(F)(F)F)c3)cn2)c2cccn2n1 [Compound 330b, (S)-(1-(4-((1-(3-(trifluoromethoxy)phenyl)-1H-imidazol-4-yl)amino)pyrrolo[2,1-f][1,2,4]triazin-2-yl)pyrrolidin-2-yl)methanol] | < 100
7 | Cc1cc(OC(F)(F)F)cc(-n2cnc(Nc3nc(N4CCC[C@H]4CO)nn4cccc34)c2)c1 [Compound 331b, (S)-(1-(4-((1-(3-methyl-5-(trifluoromethoxy)phenyl)-1H-imidazol-4-yl)amino)pyrrolo[2,1-f][1,2,4]triazin-2-yl)pyrrolidin-2-yl)methanol] | < 100
8 | COc1cc(-n2cnc(Nc3nc(N4C[C@@H]5C[C@@H]5[C@H]4CO)c4cccn4n3)c2)cc(OC)c1OC [Compound 332b, ((1S,2S,5R)-3-(2-((1-(3,4,5-trimethoxyphenyl)-1H-imidazol-4-yl)amino)pyrrolo[2,1-f][1,2,4]triazin-4-yl)-3-azabicyclo[3.1.0]hexan-2-yl)methanol] | < 100
9 | COc1cc(-n2cnc(Nc3nc(N4CC[C@H](CO)C4)c4cccn4n3)c2)cc(OC)c1OC [Compound 333b, (S)-(1-(2-((1-(3,4,5-trimethoxyphenyl)-1H-imidazol-4-yl)amino)pyrrolo[2,1-f][1,2,4]triazin-4-yl)pyrrolidin-3-yl)methanol] | < 100
10 | COc1cc(-n2cnc(Nc3nc(N4CCN(C)CC4)nn4cccc34)c2)cc(OC)c1OC [Compound 334a, 2-(4-methylpiperazin-1-yl)-N-(1-(3,4,5-trimethoxyphenyl)-1H-imidazol-4-yl)pyrrolo[2,1-f][1,2,4]triazin-4-amine] | < 100
11 | COc1cc(-n2cnc(Nc3nc(N4CCC[C@H]4CO)c4cccc(CN5CCCCC5)c4n3)c2)cc(OC)c1OC [Compound 335d, (S)-(1-(8-(piperidin-1-ylmethyl)-2-((1-(3,4,5-trimethoxyphenyl)-1H-imidazol-4-yl)amino)quinazolin-4-yl)pyrrolidin-2-yl)methanol] | < 100
12 | COc1cc(-n2cnc(Nc3nc(N4CCC[C@H]4CO)nc4c3cnn4C)c2)cc(OC)c1OC [Compound 336c, (S)-(1-(1-methyl-4-((1-(3,4,5-trimethoxyphenyl)-1H-imidazol-4-yl)amino)-1H-pyrazolo[3,4-d]pyrimidin-6-yl)pyrrolidin-2-yl)methanol] | < 100
13 | COc1cc(-n2cnc(Nc3nc(N4CCC[C@H]4C(N)=O)nc4c3cnn4C)c2)cc(OC)c1OC [Compound 337a, (S)-1-(1-methyl-4-((1-(3,4,5-trimethoxyphenyl)-1H-imidazol-4-yl)amino)-1H-pyrazolo[3,4-d]pyrimidin-6-yl)pyrrolidine-2-carboxamide] | < 100
14 | COc1cc(-n2cnc(Nc3nc(N4CCC[C@H]4CO)c4cnn(C)c4n3)c2)cc(OC)c1OC [Compound 338b, (S)-(1-(1-methyl-6-((1-(3,4,5-trimethoxyphenyl)-1H-imidazol-4-yl)amino)-1H-pyrazolo[3,4-d]pyrimidin-4-yl)pyrrolidin-2-yl)methanol] | < 100
15 | OC[C@@H]1CCCN1c1nc(Nc2cn(-c3ccc4c(c3)OC(F)(F)O4)cn2)c2occc2n1 [Compound 339e, (S)-(1-(4-(1-(2,2-difluorobenzo[d][1,3]dioxol-5-yl)-1H-imidazol-4-ylamino)furo[3,2-d]pyrimidin-2-yl)pyrrolidin-2-yl)methanol] | 100 to 1000
16 | COc1cc(-n2cnc(Nc3nc(N4CCC[C@H]4C(N)=O)nc4cccc(F)c34)c2)cc(OC)c1OC [Compound 340c, (S)-1-(5-fluoro-4-((1-(3,4,5-trimethoxyphenyl)-1H-imidazol-4-yl)amino)quinazolin-2-yl)pyrrolidine-2-carboxamide] | 100 to 1000

Second part, the molecule after the results:

Row | IC50 [nM] | SMILES
17 | < 100 | COc1cc(-n2cnc(Nc3nc(N4CCC[C@@H]4CO)c4sccc4n3)c2)cc(OC)c1OC [Compound 310b, (R)-(1-(2-((1-(3,4,5-trimethoxyphenyl)-1H-imidazol-4-yl)amino)thieno[3,2-d]pyrimidin-4-yl)pyrrolidin-2-yl)methanol]
18 | < 100 | COc1cc(-n2cnc(Nc3nc(N4CCC[C@H]4C(N)=O)nc4c3COC4)c2)cc(OC)c1OC [Compound 311a, (S)-1-(4-((1-(3,4,5-trimethoxyphenyl)-1H-imidazol-4-yl)amino)-5,7-dihydrofuro[3,4-d]pyrimidin-2-yl)pyrrolidine-2-carboxamide]
19 | < 100 | COc1cc(-n2cnc(Nc3nc(N4CCC[C@@H]4C(N)=O)nc4c3COC4)c2)cc(OC)c1OC [Compound 312a, (R)-1-(4-((1-(3,4,5-trimethoxyphenyl)-1H-imidazol-4-yl)amino)-5,7-dihydrofuro[3,4-d]pyrimidin-2-yl)pyrrolidine-2-carboxamide]
20 | < 100 | COc1cc(-n2cnc(Nc3nc(N4CCC[C@@H]4C(N)=O)nc4c3CCCC4)c2)cc(OC)c1OC [Compound 313a, (R)-1-(4-((1-(3,4,5-trimethoxyphenyl)-1H-imidazol-4-yl)amino)-5,6,7,8-tetrahydroquinazolin-2-yl)pyrrolidine-2-carboxamide]
21 | < 100 | COc1cc(-n2cnc(Nc3nc(N4CCC[C@@H]4C(N)=O)nc4[nH]ccc34)c2)cc(OC)c1OC [Compound 314b, (R)-1-(4-((1-(3,4,5-trimethoxyphenyl)-1H-imidazol-4-yl)amino)-7H-pyrrolo[2,3-d]pyrimidin-2-yl)pyrrolidine-2-carboxamide]
22 | < 100 | COc1cc(-n2cnc(Nc3nc(N4CCC[C@H]4C(N)=O)nc4cc(CN5CCCCC5)oc34)c2)cc(OC)c1OC [Compound 315f, (S)-1-(6-(piperidin-1-ylmethyl)-4-((1-(3,4,5-trimethoxyphenyl)-1H-imidazol-4-yl)amino)furo[3,2-d]pyrimidin-2-yl)pyrrolidine-2-carboxamide]
23 | < 100 | COc1cc(-n2cnc(Nc3nc(N4CCC[C@@H]4CO)nc4scnc34)c2)cc(OC)c1OC [Compound 317a, (R)-(1-(7-((1-(3,4,5-trimethoxyphenyl)-1H-imidazol-4-yl)amino)thiazolo[5,4-d]pyrimidin-5-yl)pyrrolidin-2-yl)methanol]
24 | < 100 | COc1cc(-n2cnc(Nc3nc(N4CCC[C@@H]4C(N)=O)nc4scnc34)c2)cc(OC)c1OC [Compound 318a, (R)-1-(7-((1-(3,4,5-trimethoxyphenyl)-1H-imidazol-4-yl)amino)thiazolo[5,4-d]pyrimidin-5-yl)pyrrolidine-2-carboxamide]
25 | < 100 | COc1ccc(-n2cnc(Nc3nc(N4CCC[C@H]4CO)nn4cccc34)c2)cc1C(F)(F)F [Compound 320b, (S)-(1-(4-((1-(4-methoxy-3-(trifluoromethyl)phenyl)-1H-imidazol-4-yl)amino)pyrrolo[2,1-f][1,2,4]triazin-2-yl)pyrrolidin-2-yl)methanol]
26 | < 100 | COc1cncc(-n2cnc(Nc3nc(N4CCC[C@H]4CO)nn4cccc34)c2)c1 [Compound 321b, (S)-(1-(4-((1-(5-methoxypyridin-3-yl)-1H-imidazol-4-yl)amino)pyrrolo[2,1-f][1,2,4]triazin-2-yl)pyrrolidin-2-yl)methanol]
27 | < 100 | COc1cc(Cl)cc(-n2cnc(Nc3nc(N4CCC[C@H]4CO)nn4cccc34)c2)c1 [Compound 322b, (S)-(1-(4-((1-(3-chloro-5-methoxyphenyl)-1H-imidazol-4-yl)amino)pyrrolo[2,1-f][1,2,4]triazin-2-yl)pyrrolidin-2-yl)methanol]
28 | < 100 | COc1cc(-n2cnc(Nc3nc(N4[C@H](CO)C[C@H]5C[C@H]54)c4cccn4n3)c2)cc(OC)c1OC [Compound 325e, ((1R,3S,5R)-2-(2-((1-(3,4,5-trimethoxyphenyl)-1H-imidazol-4-yl)amino)pyrrolo[2,1-f][1,2,4]triazin-4-yl)-2-azabicyclo[3.1.0]hexan-3-yl)methanol]
29 | < 100 | COc1cc(-n2cnc(Nc3nc(N4CCC[C@H]4CO)nc4c3cnn4C3CCCCO3)c2)cc(OC)c1OC (stereo partly drawn) [Compound 326c, ((2S)-1-(1-(tetrahydro-2H-pyran-2-yl)-4-((1-(3,4,5-trimethoxyphenyl)-1H-imidazol-4-yl)amino)-1H-pyrazolo[3,4-d]pyrimidin-6-yl)pyrrolidin-2-yl)methanol]
30 | < 100 | COc1cc(-n2cnc(Nc3nc(N4CCC[C@@H]4CO)c4ccccc4n3)c2)cc(OC)c1OC [Compound 327b, (R)-(1-(2-((1-(3,4,5-trimethoxyphenyl)-1H-imidazol-4-yl)amino)quinazolin-4-yl)pyrrolidin-2-yl)methanol]
